Tests used:
Assay type in all cases: in vivo
black cutworm larvae [1] = assay: Black cutworm feeding damage on corn: lambda-cyhalothrin seed treatment vs tefluthrin soil granular treatments (Reference Example 1); conditions: for Plant Defol. 3 DAI / Plant Defol. 7 DAI / Plant Defol. 10 DAI: rating 1=no damage, 10=complete defoliation
Description: This example compares the efficacy of seed treatment with lambda-cyhalothrin (CAS #91465-08-6) to soil granular treatments with tefluthrin (CAS #79538-32-2) against feeding damage by black cutworm larvae on shoots and foliage.
(§1) A lambda-cyhalothrin seed treatment formulation was prepared by diluting the WARRIOR® T insecticide (Zeneca Ag Products, Wilmington, Del.), which contains 11.4% lambda-cyhalothrin as the active ingredient, into water as a carrier. This formulation was applied for one minute at room temperature to twenty-five grams of Pioneer corn seed (Cultivar PN3394) in a rotostatic seed treater at a rate of 125 g, 250 g or 500 g active ingredient (Al) to 100 kg seed. The treated seeds were allowed to sit uncapped for four to twenty-four hours before planting.
(§2) Treated and untreated seeds (Pioneer hybrid PN3394) were planted in a soil mix consisting of Dupo silt loam, 30% Perlite, 20% coarse sand (WB-10 grade) in six groups of tubs (20 in. L×15 in. W×8 in. D). Twelve seeds were planted per tub and three tubs were planted for each treatment regimen. Soil applications of FORCE® 3GR, which contains 3% tefluthrin granule as the active ingredient, were used for two sets of tubs containing untreated seeds. The FORCE 3GR was applied either in-furrow or incorporated into a 5 inch band on the soil surface at the time of planting. The tubs were overhead irrigated until the plants were infested with black cutworm larvae.
The rate of application for the FORCE 3GR was reported in units of grams of the active ingredient per hectare (g/ha), while the rate of application of the WARRIOR T to the seeds was reported in units of grams of the active ingredient per 100 kilograms of the seeds (g/100 kg). Although the conversion of one of these units to the other will vary somewhat according to the type of seed that is being used, the size and weight of the seed, and the density of planting that is used—among other things—an approximate conversion for corn seed can be carried out as follows. Assuming a seed application rate of lambda cyhalothrin of, for example, 125 g/100 kg of seed and a planting density of 15 lbs seed/ac, about 14.7 acres can be planted with 100 kg of the seed. This is an effective application rate of about 8.5 g of lambda cyhalthrin per acre. At 2.47 ac/ha, the seed treatment level of 125 g/100 kg is approximately equivalent to a surface banding treatment at about 21 g/ha.
The corn plants were infested at 12 DAP, which corresponds to late growth stage V1 by placing two black cutworm larvae at ¾ instar on the soil surface near the base of the plant. Plants were rated 3, 7 and 10 days after infestation (DAI) for the number of cut plants, as well as damage from leaf feeding. The percent stand reduction due to plant cutting was calculated by dividing the number of cut plants into the number of plants present at infestation. The foliar feeding injury was evaluated using a rating scale of 1=no damage and 10=complete defoliation.

corn plants = assay: Vigor rating of corn plants at 12 DAP as indication of phytotoxicity from seed or soil treatment (Reference Example 1); conditions: rating 1 extremely low vigor, 10 highest
Description: as §1, §2
At twelve days after planting (DAP) but before infestation, the overall health of each plant was rated by looking at emergence, height and appearance. This vigor rating gives an indication of any phytotoxicity from the seed or soil treatment. A rating of 1 indicates extremely low. vigor while 10 is the highest vigor rating.

black cutworm larvae [2] = assay: Protection of corn plants against black cutworm damage by seed treatment with tefluthrin, clothianidin and combinations; Colby synergy (Example 2); conditions: for STAND REDUCTION (% at 10 days): 10 DAI; for Percent of Control: stand reduction as percent of untreated control
Description: This example illustrates the efficacy of corn seed treatment with a combination of tefluthrin and clothianidin against plant damage by black cutworm.
Seed treatment formulations were prepared from RAZE® 2.5 FS formulation (available from Wilbur-Ellis Co.) containing 26.8% tefluthrin, and clothianidin, (E)-(N-[(2-chloro-5-thiazolyl)methyl]-N′-methyl-N″-nitroguanidine; CAS Registry number 210880-92-5. In addition, separate seed treatment formulations were prepared from each of the two insecticides alone. Corn seed was prepared and treated as described in Reference Example 1, except that the treatment levels of the active ingredients on the seeds was as shown in Table 3. Treated and untreated seeds were planted in tubs and cultivated as described in Example 1. The tubs were overhead irrigated until the plants were infested with black cutworm larvae.
The corn plants were infested at 12 DAP, as described in Reference Example 1, Plants were rated at 10 days after infestation (DAI) for the number of cut plants. The percent stand reduction due to plant cutting was calculated by dividing the number of cut plants into the number of plants present at infestation.
Whether a combination of insecticides provided synergy in protection against cutworm damage was calculated as described by Colby, Robert. S., in Weeds, 15(1):20-22 (1967). The threshold value (stated as % of control) for synergy of a combination was calculated as =(% of control for treatment A)*(% of control for treatment B)/100(n−1); where n=number of active ingredients in combination. A measured % of control value that is less than the threshold value indicates synergy of the combination. Threshold values for synergy were calculated for each of the combinations of Table 3, and the threshold values for synergy of combinations of the active ingredients at various levels are shown in Table 4.

[3] = seed treatment 125 g/100 kg seed
[4] = seed treatment 250 g/100 kg seed
[5] = seed treatment 500 g/100 kg seed

## Cc1c(F)c(F)c(COC(=O)[C@@H]2[C@H](/C=C(\Cl)C(F)(F)F)C2(C)C)c(F)c1F (racemic) [Tefluthrin, (2,3,5,6-tetrafluoro-4-methylphenyl)-methyl-(1 alpha, 3 alpha)-(Z)-(±)-3-(2-chloro-3,3,3-trifluoro-1-propenyl)-2,2-dimethylcyclopropanecarboxylate]
Black cutworm larvae [1]; banded 30 g/ha (FORCE 3GR)
  Plant Defol. 3 DAI: 1.7
  % Stand Reduct'n 7 DAI: 0.0%
  Plant Defol. 7 DAI: 1.7
  % Stand Reduct'n 10 DAI: 0.0%
  Plant Defol. 10 DAI: 0.3
Black cutworm larvae [1]; banded 30 g/ha (FORCE 3GR, 5 inch soil surface band)
  % Stand Reduct'n 3 DAI: 0.0%
Black cutworm larvae [1]; in-furrow 30 g/ha (FORCE 3GR)
  Plant Defol. 3 DAI: 5.0
  % Stand Reduct'n 7 DAI: 48.0%
  Plant Defol. 7 DAI: 6.0
  % Stand Reduct'n 10 DAI: 48.0%
  Plant Defol. 10 DAI: 5.3
Corn plants; soil granule (FORCE 3GR) banded 30 g/ha
  Vigor at 12 DAP: 8.7
Corn plants; soil granule (FORCE 3GR) in-furrow 30 g/ha
  Vigor at 12 DAP: 9.0

## CN/C(=N\[N+](=O)[O-])NCc1cnc(Cl)s1 [Clothianidin, (E)-1-(2-chloro-1,3-thiazol-5-ylmethyl)-3-methyl-2-nitroguanidine]
Black cutworm larvae [2]; seed treatment clothianidin 50 gm/100 kg seed
  STAND REDUCTION (% at 10 days): 61.15%
Black cutworm larvae [2]; seed treatment clothianidin 100 gm/100 kg seed
  STAND REDUCTION (% at 10 days): 34.38%
Black cutworm larvae [2]; clothianidin 50 gm/100 kg seed
  Percent of Control: 61.2%
Black cutworm larvae [2]; clothianidin 100 gm/100 kg seed
  Percent of Control: 34.4%

## CC1(C)[C@H](C(=O)O[C@H](C#N)c2cccc(Oc3ccccc3)c2)[C@@H]1/C=C(\Cl)C(F)(F)F [λ-cyhalothrin, [1 alpha (s), 3 alpha(z)]-cyano(3-phenoxyphenyl)methyl-3-(2-chloro-3,3,3-trifluoro-1-propenyl)-2,2-dimethylcyclopropane carboxylate]
Black cutworm larvae [1]; [3]
  Plant Defol. 3 DAI: 4.3
  Plant Defol. 7 DAI: 5.0
  Plant Defol. 10 DAI: 3.3
Black cutworm larvae [1]; [4]
  % Stand Reduct'n 3 DAI: 3.0%
  Plant Defol. 3 DAI: 3.7
  % Stand Reduct'n 7 DAI: 3.0%
  Plant Defol. 7 DAI: 2.7
  % Stand Reduct'n 10 DAI: 3.0%
  Plant Defol. 10 DAI: 1.7
Black cutworm larvae [1]; seed treatment 250 g/100 kg seed, listed as lambda-cyhalothrin
  % Stand Reduct'n 7 DAI: 3%
Black cutworm larvae [1]; [5]
  % Stand Reduct'n 3 DAI: 0.0%
  Plant Defol. 3 DAI: 2.0
  % Stand Reduct'n 7 DAI: 0.0%
  Plant Defol. 7 DAI: 2.3
  % Stand Reduct'n 10 DAI: 0.0%
  Plant Defol. 10 DAI: 1.0
Black cutworm larvae [1]; seed treatment 500 g/100 kg seed, listed as lambda-cyhalothrin
  % Stand Reduct'n 7 DAI: 0%
Corn plants; seed treatment 125 g AI/100 kg corn seed
  Vigor at 12 DAP: 9.0
Corn plants; seed treatment 250 g AI/100 kg corn seed
  Vigor at 12 DAP: 8.3
Corn plants; seed treatment 500 g AI/100 kg corn seed
  Vigor at 12 DAP: 8.3

Source: US8524634B2, “Seed treatment with combinations of pyrethrins/pyrethroids and clothianidin” (priority 2000, dated 2013)
